Experimental data published in patent US12084445B2, “Broad-spectrum carbapenems” (VenatoRx Pharmaceuticals, Inc., priority 2018, dated 2024).
Where two headings read alike, the source gives them in different places.

How the values were obtained:
Type in all cases: cell-based
[1] = system: P. aeruginosa ΔmexAB-OprM (an efflux pump knockout); assay: broth microdilution MIC assay, P. aeruginosa ΔmexAB-OprM; conditions: Pseudomonas aeruginosa, 20 h, read-out: P. aeruginosa ΔmexAB-OprM MIC
Summary of the method: (§1)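 MIC = lowest compound concentration with no visible growth after 16-20 h at 37 °C. Inoculum 5×10^5 CFU/mL from 3-5 h Mueller-Hinton broth cultures standardized by OD600; compounds tested as 2-fold serial dilutions per CLSI.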

[2] = system: E. coli ATCC 25922 (wild-type/QC strain); assay: broth microdilution MIC assay, E. coli ATCC 25922; conditions: Escherichia coli, ATCC25922, E. coli 25922, read-out: E. coli 25922 MIC
Summary of the method: as §1

S. aureus USA600 = assay: broth microdilution MIC assay, S. aureus USA 600; conditions: Staphylococcus aureus; Table 4; S. aureus USA600; read-out: S. aureus USA600 MIC
Summary of the method: as §1

[3] = system: P. aeruginosa 35151 (hyper-permeable strain); assay: broth microdilution MIC assay, P. aeruginosa 35151; conditions: Pseudomonas aeruginosa, read-out: P. aeruginosa 35151 MIC
Summary of the method: as §1

S. aureus USA 300 = assay: broth microdilution MIC assay, S. aureus USA 300; conditions: Staphylococcus aureus; Table 4; S. aureus USA300; read-out: S. aureus USA300 MIC
Summary of the method: as §1

[4] = system: S. aureus ATCC 29213 (methicillin sensitive); assay: broth microdilution MIC assay, S. aureus ATCC 29213; conditions: Staphylococcus aureus, ATCC 29213 / MSSA; Table 3; S. aureus 29213 (MSSA); read-out: S. aureus 29213 (MSSA) MIC
Summary of the method: as §1

[5] = system: P. aeruginosa ATCC 27853 (wild-type/QC strain); assay: broth microdilution MIC assay, P. aeruginosa ATCC 27853; conditions: Pseudomonas aeruginosa, ATCC27853, P. aeruginosa 27853, read-out: P. aeruginosa 27853 MIC
Summary of the method: as §1

[6] = system: clinical isolate P. aeruginosa PA 8; assay: broth microdilution MIC assay, P. aeruginosa PA 8; conditions: Pseudomonas aeruginosa, P. aeruginosa PA8
Summary of the method: as §1

[7] = system: S. aureus ATCC 33591 (methicillin-resistant); assay: broth microdilution MIC assay, S. aureus ATCC 33591; conditions: Staphylococcus aureus
Summary of the method: as §1

[8] = system: P. aeruginosa PA 3 (a clinical isolate of reduced carbapenem susceptibility); assay: broth microdilution MIC assay, P. aeruginosa PA 3; conditions: Pseudomonas aeruginosa; Table 5; P. aeruginosa PA3
Procedure: (§2) To determine the ability of test compounds to potentiate the inhibition of the growth of bacterial strains, classic cell-based broth microdilution MIC assays were employed. MIC assays are performed according to CLSI methods except where otherwise noted (CLSI, 2011 and CLSI, 2009). The reference strains S. aureus ATCC 29213 (methicillin sensitive), S. aureus ATCC 33591 (methicillin-resistant), E. coli ATCC 25922 (wild-type/QC strain), P. aeruginosa ATCC 27853 (wild-type/QC strain), and the clinical isolate P. aeruginosa PA 8 were used to determine the ability of the exemplary carbapenem compounds to inhibit bacterial growth. An expanded panel of methicillin resistance S. aureus (MRSA) and Pseudomonas was also used to determine the ability of exemplary carbapenem compounds to inhibit bacterial growth across a broader representation of those species. To determine activity in MRSA and in addition to S. aureus ATCC 33591, S. aureus USA 300, USA 400 and USA 600, some of the most common clones found to cause human infection, were also used. To further gauge the impact on the carbapenem compounds due to various resistance mechanisms in Pseudomonas, the following strains were included: P. aeruginosa 35151 (hyper-permeable strain), P. aeruginosa AmexAB-OprM (an efflux pump knockout), and P. aeruginosa PA 3 (a clinical isolate of reduced carbapenem susceptibility). Briefly, cryo-preserved bacterial cultures of clinical strains are streaked for isolation on appropriate agar medium, in this case Mueller Hinton II agar. Following incubation to allow formation of colonies, these plates are sealed with parafilm and stored refrigerated for up to two weeks. For preparation of assay inocula and to ensure low variability, at least 5 colonies are picked from the agar plates with an inoculating loop and aseptically transferred to a culture tube containing 3 mL of Mueller-Hinton Broth (supplemented with divalent cations to required levels based on Manufacturers' specification). The broth culture is grown for 3-5 hours at 37° C. with shaking at 200 rpm. Meanwhile, 2-fold serial dilutions of test compounds are conducted in a 96 well plate with a final volume of 75 μL per well at 2-fold the final desired concentration. After the dilution plates are set up the growing cultures are then diluted in a cuvette containing MH II broth and the optical density is measured at 600 nm. Inocula are diluted such that 75 μL of this culture in Mueller-Hinton Broth results in a starting bacterial concentration of 5×10^5 CFU/mL when added to the dilution plates. The plates are incubated 16-20 hours at 37° C. The MIC is read visually as the lowest concentration well with no bacterial growth.
(§3) Representative results are shown in Tables 3, 4, and 5 where A represents an MIC>32 μg/mL, B represents an MIC between 8 and 32 μg/mL inclusive, C represents an MIC between 1 and 4 μg/mL inclusive, and D represents an MIC of <1 μg/mL. NT=Not Tested.

S. aureus USA400 = assay: broth microdilution MIC assay, S. aureus USA 400; conditions: Staphylococcus aureus, Table 4
Procedure: as §2, §3

[9] = ATCC 33591 / MRSA, Table 3, S. aureus 33591 (MRSA), read-out: S. aureus 33591 (MRSA) MIC
[10] = ATCC33591, Table 4, S. aureus 33591, read-out: S. aureus 33591 MIC

Row | SMILES | MIC [1] [µg/mL] | MIC ([2]; Table 3) [µg/mL] | MIC ([2]; Table 4) [µg/mL] | MIC (S. aureus USA600) [µg/mL] | MIC [3] [µg/mL] | MIC (S. aureus USA 300) [µg/mL] | MIC [4] [µg/mL] | MIC ([5]; Table 3) [µg/mL] | MIC ([5]; Table 5) [µg/mL] | MIC ([6]; Table 3) [µg/mL] | MIC ([6]; Table 5) [µg/mL] | MIC [7, 9] [µg/mL] | MIC [7, 10] [µg/mL] | MIC [8] [µg/mL] | MIC (S. aureus USA400) [µg/mL]
1 | C[C@@H](O)[C@H]1C(=O)N2C(C(=O)O)=C(S[C@@H]3CCN(CC4CCN(C(=N)N)CC4)C3)[C@H](C)[C@H]12 [Example 35, (4R,5S,6S)-3-(((R)-1-((1-carbamimidoylpiperidin-4-yl)methyl)pyrrolidin-3-yl)thio)-6-((R)-1-hydroxyethyl)-4-methyl-7-oxo-1-azabicyclo[3.2.0]hept-2-ene-2-carboxylic acid] | < 1 | < 1 | < 1 | < 1 | < 1 | < 1 | 1 to 4 | 1 to 4 | 1 to 4 | 1 to 4 | 1 to 4 | 1 to 4 | 1 to 4 | 8 to 32 | 1 to 4
2 | C[C@@H](O)[C@H]1C(=O)N2C(C(=O)O)=C(S[C@@H]3CCN(C4CCC(N)(CN)CC4)C3)[C@H](C)[C@H]12 (stereo partly drawn) [Example 38, (4R,5S,6S)-3-(((R)-1-(4-amino-4-(aminomethyl)cyclohexyl)pyrrolidin-3-yl)thio)-6-((R)-1-hydroxyethyl)-4-methyl-7-oxo-1-azabicyclo[3.2.0]hept-2-ene-2-carboxylic acid] | – | < 1 | < 1 | – | – | 8 to 32 | – | 8 to 32 | 8 to 32 | 8 to 32 | 8 to 32 | 8 to 32 | 8 to 32 | 8 to 32 | 1 to 4
3 | C[C@@H](O)[C@H]1C(=O)N2C(C(=O)O)=C(SC3CN(CC4CCNCC4)C3)[C@H](C)[C@H]12 [Example 42, (4R,5S,6S)-6-((R)-1-hydroxyethyl)-4-methyl-7-oxo-3-((1-(piperidin-4-ylmethyl)azetidin-3-yl)thio)-1-azabicyclo[3.2.0]hept-2-ene-2-carboxylic acid] | 1 to 4 | – | < 1 | 1 to 4 | < 1 | 1 to 4 | – | – | 1 to 4 | – | 1 to 4 | – | 1 to 4 | 8 to 32 | 1 to 4
4 | C[C@@H](O)[C@H]1C(=O)N2C(C(=O)O)=C(SC3CCN(CC4CCNCC4)CC3)[C@H](C)[C@H]12 [Example 44, (4R,5S,6S)-6-((R)-1-hydroxyethyl)-4-methyl-7-oxo-3-((1-(piperidin-4-ylmethyl)piperidin-4-yl)thio)-1-azabicyclo[3.2.0]hept-2-ene-2-carboxylic acid] | 1 to 4 | – | 1 to 4 | – | < 1 | 1 to 4 | – | – | 8 to 32 | – | 8 to 32 | – | 8 to 32 | 8 to 32 | 1 to 4
